One compound from US9725490B2, “ERAP1-derived peptide and use thereof” (TOKUSHIMA UNIVERSITY, priority 2011, dated 2017) can be followed below.

What all share (type): cell-based, human
The subject of assay [1] is ERα interaction with IGF-1Rβ and Shc. The experiment in a line: E2-independent non-genomic activation route via IGF-1Rβ, MCF-7. Particulars: 10 μM, 24 hours, cytoplasm fraction. How it is done:
FIG. 15 is a diagram illustrating the effects of the ERAP1-peptide on E2-independent cell functions. […] MCF-7 cells were treated with the ERAP1-peptide in each concentration (1, 3, 5 and 10 μM) or 10 nM tamoxifen as a positive control for 24 hours. […] MCF-7 cells were stimulated with 10 μM ERAP1-peptide treatment only, 10 nM E2 treatment only, or 10 μM ERAP1-peptide treatment and immediately 10 nM E2 for 24 hours, and the cytoplasm fraction was isolated from each of the treated cells. Then, the cytoplasm fraction was immunoprecipitated with anti-ERα antibody. Furthermore, with respect to the obtained sample, Western blotting analysis was performed using the antibodies shown in the figure.
MCF-7 cells were subjected to a treatment of 10 μM ERAP1-peptide alone, stimulation with 10 nM E2 alone, and co-stimulation with the ERAP1 peptide and E2, respectively, and after 24 hours, the cytoplasm fraction was isolated from the cells of each treatment. The cytoplasm fraction was precleaned using normal IgG and rec-Protein G Sepharose 4B (Zymed, San Francisco, Calif., USA) at 4° C. for 3 hours, and centrifuged, and then the supernatant was incubated in the presence of anti-ERα antibody at 4° C. for 6 hours. Then, the supernatant was added with rec-Protein G Sepharose 4B and incubated at 4° C. for 1 hour whereby to precipitate an antigen-antibody complex. […]

Assay [2] relates to Akt, MAPK and ERα phosphorylation. In words: Phosphorylation of Akt, MAPK and ERα in tamoxifen-resistant MCF-7 cells. How it is done: FIG. 14 is a diagram illustrating the suppression effect of the ERAP1-peptide on tamoxifen-resistant MCF-7 cells. […] The tamoxifen-resistant MCF-7 cells were treated with the ERAP1-peptide in each concentration (0, 5 and 10 μM). Then, immediately, the cells were stimulated with 10 nM E2 for 24 hours.
MCF-7 cells and tamoxifen-resistant MCF-7 cells were seeded in 1×10^5/well in DMEM/F12 culture medium containing phenol red on a 24-well plate and stood in a CO2 incubator for 24 hours. Then, the culture medium was exchanged with DMEM/F12 culture medium containing 10% FBS, 1% penicillin/streptomycin and 1 μM tamoxifen, and not containing phenol red, and the cells were further pre-cultured for 24 hours. The supernatant was removed, and then 180 μl of […] ERAP1-peptide was added (final concentration: 10 μM), and subsequently 20 μl of 100 nM E2 was added (final concentration: 10 nM), and the mixture was reacted for 24 hours. The reaction solution was removed, and then 100 μl of SDS-sample buffer was added and the cells were lysed. The cells were subjected to boiling treatment at 95° C. for 5 minutes, and subjected to polyacrylic amide electrophoresis. Phosphorylations of Akt and MAPK were detected with anti-phosphorylation Akt (Ser473) (587F11) and anti-phosphorylation p44/42 MAP Kinase (Thr202/Tyr204) antibodies, and phosphorylation of ERα was detected with anti-phosphorylation ERα (Ser104/106), anti-phosphorylation ERα (Ser118), anti-phosphorylation ERα (Ser167), anti-phosphorylation ERα (Ser305) and anti-phosphorylation ERα (Tyr537) antibodies.

Assay [3] deals with ZR-75-1, HCC1500, BT474, YMB-1, KPL-1, HBC4. In words: E2-dependent cell proliferation assay, other ERα/ERAP1-positive breast cancer cell lines. The settings on record: 10 μM, 10 nM E2 24 hours. How it is done: FIG. 7-2 is a diagram illustrating that ERAP1-peptide treatment suppresses ERα-dependent cell proliferation of breast cancer cell lines. […] Various ERα/ERAP1-positive breast cancer cell lines shown in the figure were treated with 10 μM of the ERAP1-peptide or the scramble peptide or 10 nM tamoxifen. Then, immediately, the cells were stimulated with 10 nM E2 for 24 hours.
Using Cell-Counting Kit-8 (CCK-8, Dojindo, Kumamoto, Japan), the cell proliferation assay was performed. The cells were harvested, and plated in 2×10^4 cells/well on a 48-well plate, and maintained at 37° C. in a humidified incubator. At the indicated time points, the cells were added with a CCK-8 solution diluted to 1:10, and incubated for 1 hour. Then, the absorbance at 450 nm was measured and the number of living cells in each well was calculated.

For assay [4], the system named is pS2, cyclin D1, c-Myc, SP-1, E2F1, PgR. The experiment in a line: Quantitative RT-PCR of ERα target genes, KPL-3C. The settings on record: 24 hours.
Assay [5] relates to ERα complex with PHB2/REA, NcoR, HDAC1, SRC-1. In words: Chromatin remodeling complex, immunoprecipitation of nuclear fraction. As to the method:
KPL-3C cells temporarily transfected with an ERE-luciferase reporter vector were treated with the ERAP1-peptide in the concentrations shown in the figure. Then, immediately, the cells were stimulated with 10 nM E2 for 24 hours. TAM indicates the tamoxifen treatment. […] KPL-3C cells were treated for 24 hours with the ERAP1-peptide and/or E2. Then, the nuclear fraction was immunoprecipitated with anti-ERα antibody or an anti-PHB2 antibody.
FIG. 4-4 is a diagram illustrating that the ERAP1-peptide promotes nuclear translocation of PHB2. […] MCF-7 cells were treated with the ERAP1-peptide and/or 10 nM E2 for 24 hours. Then, the nuclear fraction was immunoprecipitated with anti-ERα antibody or an anti-PHB2 antibody. […] MCF-7 cells were treated with the ERAP1-peptide and/or E2 for 24 hours. Then, the cell lysate was immunoprecipitated with anti-PHB2 antibody. Subsequently, the HDAC activity in the immunoprecipitate was measured with a commercially available kit. The nuclear extract from the HeLa cells and PBS were used as a positive control (P) and as negative control (N), respectively.
As described in the item of “Western blotting analysis”, the cells were lysed with a 0.1% NP-40 lysis buffer. The cell lysate was precleaned using normal IgG and rec-Protein G Sepharose 4B (Zymed, San Francisco, Calif., USA) at 4° C. for 3 hours. […]

Regarding `CSCC[C@H](NC(=O)[C@H](CCC(N)=O)NC(=O)[C@H](CCCNC(=N)N)NC(=O)[C@H](CCCNC(=N)N)NC(=O)[C@H](CCCNC(=N)N)NC(=O)[C@H](CCCNC(=N)N)NC(=O)[C@H](CCCNC(=N)N)NC(=O)[C@H](CCCNC(=N)N)NC(=O)[C@H](CCCNC(=N)N)NC(=O)[C@H](CCCNC(=N)N)NC(=O)[C@H](CCCNC(=N)N)NC(=O)[C@H](CCCNC(=N)N)NC(=O)[C@@H](N)CCCNC(=N)N)C(=O)N[C@@H](CC(C)C)C(=O)N[C@@H](CO)C(=O)N[C@@H](CC(=O)O)C(=O)N[C@@H](CC(C)C)C(=O)N[C@H](C(=O)N[C@@H](CC(C)C)C(=O)N[C@@H](CCC(N)=O)C(=O)N[C@@H](CC(C)C)C(=O)N[C@@H](CCCNC(=N)N)C(=O)N[C@@H](CCC(N)=O)C(=O)N[C@@H](CCCNC(=N)N)C(=O)O)[C@@H](C)O` [ERAP1-peptide], in assay [1], the “interaction of IGF-1Rβ and Shc with ERα, absence of E2” value was “each interaction of IGF-1Rβ and Shc, and ERα was inhibited”. In addition, in assay [2] (Tam-R MCF-7, 10 μM peptide), the “phosphorylation of ERα” value was “all phosphorylation of ERα was also decreased”. Also, in assay [2] (Tam-R MCF-7, tamoxifen alone or tamoxifen and E2), the “phosphorylations of Akt and MAPK” value is “phosphorylations of Akt and MAPK were remarkably decreased”. Besides, the E2-dependent cell proliferation entry in assay [3] was “remarkable E2-dependent proliferation suppression effect in all of the cells”. Also, in assay [4], the “expression of ERα target genes” value is listed as “remarkable suppression for expression of all of these genes”. Besides, the “interaction of ERα with transcription factors” value in assay [5] (KPL-3C cells) is “ERα recruited NcoR and HDAC1 to form a complex”; in assay [5] (MCF-7 cells) it was “the binding of ERα and SRC-1 decreased, whereas ERα interacted with PHB2/REA, and further recruited NcoR and HDAC1 to form a complex”.
